Entries after “also recorded” stand apart in the source; their conditions may differ.
B1: SV40 small T antigen: viral protein said to block negative regulation of PIM-1 by protein phosphatase 2A (protein, UniProt P03081 1-174, looked up)
Small t antigen: MDKVLNREESLQLMDLLGLERSAWGNIPLMRKAYLKKCKEFHPDKGGDEEKMKKMNTLYKKMEDGVKYAHQPDFGGFWDATEVFASSLNPGVDAMYCKQWPECAKKMSANCICLLCLLRMKHENRKLYRKDPLVWVDCYCFDCFRMWFGLDLCEGTLLLWCDIIGQTTYRDLKL

Legend:
[1] = tested on: protein phosphatase 2A; settings: cited from earlier work
[2] = tested on: PIM-1; test: PIM-1 expression in cultured cardiomyocytes (immunoblot, confocal microscopy); format: cell-based, rat; settings: for PIM-1 protein level (immunoblot): 2 hour exposure; for induction of PIM-1 expression / PIM-1 immunoreactivity by confocal microscopy: treatment for 2 hours; for PIM-1 immunoreactivity by confocal microscopy: compared to control cells
Procedure: Neonatal Rat Cardiomyocyte Cultures infections and treatments. Neonatal rat cardiomyocyte cultures were prepared as described previously^12. Cells to be subjected to treatments were placed in media with 2% serum overnight and then treated with the appropriate agent and harvested or fixed after the pre-described timepoint. Cardiomyocytes were infected with adenovirus for two hours, washed in PBS and then re-fed M199 with 2% FBS and 50 μg/ml pen/strep, and 100 μM glutamine.
Immunoblotting. Infected cardiomyocytes were harvested 24 hours after infection in SDS denaturing sample buffer, sonicated and boiled for 10 minutes, and quantitated using the Bradford assay. Mouse whole heart lysates were generated from flash frozen hearts pulverized in a mortar and pestle then resuspended in SDS denaturing sample buffer, sonicated, boiled for 10 minutes and quantitated using Bradford assay. […] Blots were blocked in 3% BSA for 1 hour, and probed with primary antibodies (PIM-1 (Cell Signaling Technology), c-jun (Cell Signaling Technology), HISTONE3™ (Cell Signaling Technology), GFP (Molecular Probes), bcl-2 (Santa Cruz), bcl-XL (Cell Signaling Technology), PHOSPHO-BADS112™ (Biosource) AKT (Cell Signaling Technology), GAPDH (Research Diagnostics Inc.), PHOSPHO-AKTS473™ (Cell Signaling Technology), total PARP (Biosource), cleaved PARP (Biosource), and cleaved caspase3 (Cell Signaling Technologies)) diluted in blocking solution overnight at 4° C. Blots were washed in TBS-0.5% Tween three times and probed with fluorescent or alkaline phosphatase conjugated secondary antibodies diluted 1:5000 in blocking solution for 1 hour at room temperature followed by three washes in TBS-0.5% Tween. […] All quantitation is based on standardization to loading controls.
Immunohistochemistry. Hearts were fixed and embedded and cardiomyocytes fixed and permeabilized as described previously^12. Staining of cultured neonatal rat cardiomyocytes was performed with antibodies described above diluted 1:25 in PBS containing 10% horse serum overnight at 4° C. Slides were washed in PBS and probed with fluorescent conjugated secondary antibodies (1:100) for one hour at room temperature, and Texas Red phalloidin (1:50 Molecular Probes) to identify actin filaments. Slides were washed three times in PBS, and stained for 30 minutes with TOPRO-3™ (1:5000 Molecular Probes) to identify nuclei, washed once and cover-slipped using […]™ (Vectra Labs). Paraffin embedded samples were cut at 4 μm and deparaffinized through a standard series of Xylene and graded Ethanol steps to water. Antigen retrieval was performed in 10 mM Citrate pH6.0. PIM-1 and phospho-AKT signals were amplified using the TYRAMIDE AMPLIFICATION KIT™ (Perkin Elmer) with primary concentrations of 1:500 for both antibodies, and secondaries 1:3000. Slides were washed following the amplification process, and stained with TOPRO-3 (Molecular Probes) to identify nuclei, washed and cover-slipped with […]™ (Vectra Labs). Confocal imaging of stained slides was performed on a Leica LCS confocal microscope. For comparison purposes, all slides were treated identically and scanned using the same settings in each experiment.

[3] = tested on: neonatal rat cardiomyocytes (NRCMs); test: Endothelin-1 induced hypertrophy, cell surface area of neonatal rat cardiomyocytes; format: cell-based; settings: 10 nM for 1 hour prior to 48 hour incubation with ET-1; compared to ET-1 stimulated cells without inhibitor
Procedure: The impact of Pim-wt overexpression upon cardiomyocyte hypertrophy was initially examined using neonatal rat cardiomyocytes (NRCMs) infected with adenoviruses encoding EGFP-Pim-wt or EGFP protein followed by stimulation with endothelin-1 (ET-1) for 24 hours.
Neonatal rat cardiomyocyte cultures were prepared as described previously (10).

Molecule | PIM-1 protein level (immunoblot) [2] | induction of PIM-1 expression [2] | PIM-1 immunoreactivity by confocal microscopy [2] | further results
C=C1[C@@H](O)[C@@H]2O[C@]3(CC[C@H](/C=C/[C@@H](C)[C@@H]4CC(C)=C[C@@]5(O[C@H](C[C@@](C)(O)C(=O)O)CC[C@H]5O)O4)O3)CC[C@H]2O[C@@H]1[C@@H](O)C[C@H](C)[C@H]1O[C@@]2(CCCCO2)CC[C@H]1C [Okadaic acid] |  |  |  | effect on negative regulation of PIM-1 by protein phosphatase 2A [1]: inhibit or block negative regulation of PIM-1 by protein phosphatase 2A
CCCCCCCCCCCCCC(=O)O[C@@H]1[C@@H](C)[C@@]2(O)[C@@H](C=C(CO)C[C@]3(O)C(=O)C(C)=C[C@@H]23)[C@@H]2C(C)(C)[C@]12OC(C)=O [PMA] | significantly increased PIM-1 expression; also recorded: Induction is evident | 2.3 fold | induced PIM-1 immunoreactivity | 
C[C@@H]1C[C@H]2[C@@H]3CCC4=CC(=O)C=C[C@]4(C)[C@@]3(F)[C@@H](O)C[C@]2(C)[C@@]1(O)C(=O)CO [dexamethasone] |  | 2.0 fold |  | 
C=C[C@@]1(C)CC(=O)[C@]2(O)[C@@]3(C)[C@@H](O)CCC(C)(C)[C@@H]3[C@H](O)[C@H](OC(C)=O)[C@@]2(C)O1 [forskolin] |  |  |  | reduction of PIM-1 expression ([2]; versus control cultures): 45%
CNC[C@H](O)c1cccc(O)c1 [phenylephrine] | did not markedly increase Pim-1 protein expression |  | not induced | PIM-1 protein level (immunoblot) ([2]; listed as phenyl-ephedrine): little or no increase
O=c1c(O)c(-c2ccc(O)c(O)c2)oc2cc(O)c(O)c(O)c12 [quercetagetin] |  |  |  | cell surface of Pim-1 expressing NRCM cultures [3]: significantly larger surface
COC[C@H]1OC(=O)c2coc3c2[C@@]1(C)C1=C(C3=O)[C@@H]2CCC(=O)[C@@]2(C)C[C@H]1OC(C)=O [wortmannin] |  |  |  | reduction of PIM-1 expression in response to IGF-1 treatment ([2]; in the presence of the inhibitor or inactivated AKT): 4.0 fold
Insulin-like Growth Factor [IGF-1] | significantly increased PIM-1 expression; also recorded: Induction is evident | 2.7 fold | induced PIM-1 immunoreactivity | 
Leukemia Inhibitory Factor [LIF] | significantly increased PIM-1 expression | 2.8 fold | induced PIM-1 immunoreactivity | 
endothelin-1 | little or no increase; also recorded: did not markedly increase Pim-1 protein expression |  | not induced | 
B1 |  |  |  | effect on negative regulation of PIM-1 by protein phosphatase 2A [1]: inhibit or block negative regulation of PIM-1 by protein phosphatase 2A
